The values below are quoted from earlier work in patent publication US8088413B2, “Methods for improved cryo-chemotherapy tissue ablation” (Nuvue Therapeutics, Inc., priority 2004, dated 2012).

One series relates to human prostate cancer. The note with it: pretreatment; temperatures close to 0° C.
In series [1] the test system is human prostate cancer cell line, PC3. The note with it: free drug given 2 to 4 days prior to freezing; drug and cryo levels individually ineffective.

Tumor Necrosis Factor-alpha: the effect on cryoinjury result with human prostate cancer is “augments the cryoinjury”. Regarding `O=c1[nH]cc(F)c(=O)[nH]1` [5-fluorouracil (5-FU), 5-fluorouracil], in series [1], the “kill efficacy of cryoinjury” value is reported as “increased kill efficacy”.
